Measurements taken from ChEMBL document CHEMBL2311512, “Addition of thiols to o-quinone methide: new 2-hydroxy-3-phenylsulfanylmethyl[1,4]naphthoquinones and their activity against the human malaria parasite Plasmodium falciparum (3D7)” (Eur J Med Chem, 2013).

Test system: Plasmodium falciparum
Assay: Antiplasmodial activity against Plasmodium falciparum 3D7 infected in RBC by flow cytometry analysis
Format: functional, organism-based

| SMILES | IC50 [µM] |
| --- | --- |
| CSc1ccc(SCC2=C(O)C(=O)c3ccccc3C2=O)cc1 | 22.3 |
| O=C1C(O)=C(CSc2ccccc2)C(=O)c2ccccc21 | 27.1 |
| CCCSCC1=C(O)C(=O)c2ccccc2C1=O | 31.8 |
| Cc1cccc(SCC2=C(O)C(=O)c3ccccc3C2=O)c1 | 5.4 |
| Cc1ccc(SCC2=C(O)C(=O)c3ccccc3C2=O)cc1 | 6.8 |
| O=C1C(O)=C(CSc2ccc(F)cc2)C(=O)c2ccccc21 | 7 |
| COc1ccc(SCC2=C(O)C(=O)c3ccccc3C2=O)cc1 | 9.3 |
| Cc1ccccc1SCC1=C(O)C(=O)c2ccccc2C1=O | 9.7 |
| O=C1C(O)=C(CSc2ccc([N+](=O)[O-])cc2)C(=O)c2ccccc21 | 14.4 |
| O=C1C(O)=C(CSc2ccc3ccccc3c2)C(=O)c2ccccc21 | 14.5 |
| O=C1C(=O)c2ccccc2C(O)=C1CSc1ccc(Cl)cc1 | 20 |
| CSc1ccc(SC(C2=C(O)C(=O)c3ccccc3C2=O)c2ccccc2)cc1 (racemic) | 18.2 |
| O=C1C(O)=C(C(Sc2ccc3ccccc3c2)c2ccc([N+](=O)[O-])cc2)C(=O)c2ccccc21 (racemic) | 19.9 |
| Cc1ccc(SC(C2=C(O)C(=O)c3ccccc3C2=O)c2ccc([N+](=O)[O-])cc2)cc1 (racemic) | 27 |
| CCCSC(C1=C(O)C(=O)c2ccccc2C1=O)c1ccc([N+](=O)[O-])cc1 (racemic) | 27.8 |
| Cc1cccc(SC(C2=C(O)C(=O)c3ccccc3C2=O)c2ccccc2)c1 (racemic) | 34.2 |
| Cc1ccccc1SC(C1=C(O)C(=O)c2ccccc2C1=O)c1ccc([N+](=O)[O-])cc1 (racemic) | 6.6 |
| O=C1C(O)=C(C(Sc2ccc(O)cc2)c2ccc([N+](=O)[O-])cc2)C(=O)c2ccccc21 (racemic) | 7.5 |
| O=C1C(O)=C(C(Sc2ccc(Cl)cc2)c2ccc([N+](=O)[O-])cc2)C(=O)c2ccccc21 (racemic) | 7.5 |
| Cc1cccc(SC(C2=C(O)C(=O)c3ccccc3C2=O)c2ccc([N+](=O)[O-])cc2)c1 (racemic) | 10.7 |
| CCCSC(C1=C(O)C(=O)c2ccccc2C1=O)c1ccccc1 (racemic) | 13.8 |
| O=C1C(O)=C(C(Sc2ccc([N+](=O)[O-])cc2)c2ccccc2)C(=O)c2ccccc21 (racemic) | 13.9 |
| O=C1C(O)=C(C(Sc2ccc(F)cc2)c2ccc([N+](=O)[O-])cc2)C(=O)c2ccccc21 (racemic) | 14.3 |
| O=C1C(O)=C(C(Sc2ccccc2)c2ccc([N+](=O)[O-])cc2)C(=O)c2ccccc21 (racemic) | 16.8 |
| Cc1ccccc1SC(C1=C(O)C(=O)c2ccccc2C1=O)c1ccccc1 (racemic) | 17.6 |
| O=C1C(O)=C([C@H]2CC[C@H](c3ccc(Cl)cc3)CC2)C(=O)c2ccccc21 [ATOVAQUONE] | 0.003 |
